Values quoted from earlier work as cited in patent US20160102058A1, “FLUORO-PERHEXILINE COMPOUNDS AND THEIR THERAPEUTIC USE” (THE UNIVERSITY COURT OF THE UNIVERSITY OF ABERDEEN, priority 2013, published 2016).

What was measured:
CPT-1 = biological target: T1, CPT-1 (Rattus norvegicus, UniProt Q63704); settings: rat cardiac mitochondria; cited from earlier work
T1 construct: host or cells: rat cardiac mitochondria
T1 sequence (Q63704 1-772): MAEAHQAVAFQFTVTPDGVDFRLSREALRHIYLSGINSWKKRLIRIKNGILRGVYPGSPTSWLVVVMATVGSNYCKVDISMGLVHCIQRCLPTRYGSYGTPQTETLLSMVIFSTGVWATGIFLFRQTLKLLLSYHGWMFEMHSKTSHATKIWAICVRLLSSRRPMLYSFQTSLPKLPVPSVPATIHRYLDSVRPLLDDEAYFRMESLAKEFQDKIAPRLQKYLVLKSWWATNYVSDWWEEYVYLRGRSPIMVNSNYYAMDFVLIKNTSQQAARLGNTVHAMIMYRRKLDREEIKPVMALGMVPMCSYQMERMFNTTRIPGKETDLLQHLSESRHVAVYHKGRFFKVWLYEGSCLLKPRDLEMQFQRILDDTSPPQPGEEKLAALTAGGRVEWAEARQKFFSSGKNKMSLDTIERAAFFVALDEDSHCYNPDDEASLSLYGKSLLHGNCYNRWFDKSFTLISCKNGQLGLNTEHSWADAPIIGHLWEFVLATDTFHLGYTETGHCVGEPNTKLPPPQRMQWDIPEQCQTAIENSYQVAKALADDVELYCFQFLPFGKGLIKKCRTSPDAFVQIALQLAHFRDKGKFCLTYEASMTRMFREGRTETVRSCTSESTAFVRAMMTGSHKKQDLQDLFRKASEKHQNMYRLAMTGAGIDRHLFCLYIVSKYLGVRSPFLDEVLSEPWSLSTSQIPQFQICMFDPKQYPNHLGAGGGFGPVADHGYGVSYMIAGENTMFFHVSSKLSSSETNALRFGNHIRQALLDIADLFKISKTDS

CPT-2 = settings: read-out: inhibition of CPT-2; cited from earlier work
hepatocytes = settings: cited from earlier work
[1] = in comparison with nitroglycerin; cited from earlier work
[2] = elderly patients with aortic stenosis unsuitable for valve replacement; cited from earlier work
[3] = cited from earlier work
[4] = EM versus PM; cited from earlier work

C1CCC(C(CC2CCCCN2)C2CCCCC2)CC1 (centres unmarked) [Perhexiline, 2-(2,2-dicyclohexylethyl)piperidine]
IC50 (CPT-1): 77 µM | IC50 (CPT-2): 79 µM | inhibition of fatty acid oxidation in hepatocytes (hepatocytes): 22 µM | reduction in the symptoms of angina [1]: greater than 50% | patients with clear symptomatic improvement [2]: 13 out of 15 | plasma perhexiline to metabolite ratio, patients without toxicological side-effects ([3]; patients who showed no side-effects): 0.3 | plasma perhexiline to metabolite ratio, patients with side-effects ([3]; patients who showed side-effects): 2.8 | difference in perhexiline clearance and required dosage between EM and PM patients [4]: ~100 fold
